Consider one compound from patent US6964783B1, “Non-solid composition for local application” (Naturveda, priority 1999, dated 2005).

Molecules are shown by their SMILES.

This assay relates to 0.4×0.4 cm wound. The assay is described as follows: Wound healing in shaved rats after local application. The format is in vivo. The settings on record: 0.2 ml applied on wound. How it is done:
30 rats (IFFA-CREDO SPF weighing 200+/−20 g) were shaved (3×3 cm) on the right side of the back. A 0.4×0.4 cm wound was produced at the centre of the shaved area. 30 minutes after producing the small wound, the coagulated blood was removed and 0.2 ml of glycerine containing 3% Alchemilla vulgaris (preparation according to example 4) or 0.2 ml of pure glycerine (controls) were applied on ten animals. The ten other control rats received 0.2 ml of distilled water. The complete healing time and the healing index were determined each day for 10 days. The healing time was reduced by 48% with the treatment based on glycerine containing 3% Alchemilla vulgaris, with a healing index of 2.1 in the treated lot, compared to an index of 3.3 obtained with the control lot.
With glycerine alone, the healing time was reduced by 26% with a healing index of 2.7.

As for `OCC(O)CO` [glycerine alone, glycerine], the healing index (determined each day for 10 days, control lot 3.3) was 2.7. Besides, the “healing time reduced by” value (followed each day for 10 days, versus control lot) is on record as 26%.
